Assay [1] addresses T1, Amine oxidase [flavin-containing] B (Rattus norvegicus, UniProt P19643).
T1 sequence (P19643 whole entry): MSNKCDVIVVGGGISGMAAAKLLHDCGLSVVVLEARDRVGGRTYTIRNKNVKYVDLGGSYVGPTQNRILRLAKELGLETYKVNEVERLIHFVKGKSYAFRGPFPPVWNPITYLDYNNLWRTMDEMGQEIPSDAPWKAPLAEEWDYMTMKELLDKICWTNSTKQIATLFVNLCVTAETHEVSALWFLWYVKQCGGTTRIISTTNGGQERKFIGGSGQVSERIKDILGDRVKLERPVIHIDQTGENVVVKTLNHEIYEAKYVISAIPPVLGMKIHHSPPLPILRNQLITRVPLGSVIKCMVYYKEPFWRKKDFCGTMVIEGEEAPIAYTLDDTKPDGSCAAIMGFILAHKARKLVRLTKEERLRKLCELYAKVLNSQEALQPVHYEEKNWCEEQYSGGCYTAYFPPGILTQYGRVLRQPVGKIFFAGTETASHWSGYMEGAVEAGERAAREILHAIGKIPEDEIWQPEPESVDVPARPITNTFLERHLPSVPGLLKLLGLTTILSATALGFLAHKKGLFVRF
The assay can be described thus: In vitro inhibitory activity against monoamine oxidase B (MAO-B) in rat brain homogenate. Format: tissue-based.

For assay [2], the target named is T2, Amine oxidase [flavin-containing] A (Rattus norvegicus, UniProt P21396).
T2 sequence (P21396 whole entry): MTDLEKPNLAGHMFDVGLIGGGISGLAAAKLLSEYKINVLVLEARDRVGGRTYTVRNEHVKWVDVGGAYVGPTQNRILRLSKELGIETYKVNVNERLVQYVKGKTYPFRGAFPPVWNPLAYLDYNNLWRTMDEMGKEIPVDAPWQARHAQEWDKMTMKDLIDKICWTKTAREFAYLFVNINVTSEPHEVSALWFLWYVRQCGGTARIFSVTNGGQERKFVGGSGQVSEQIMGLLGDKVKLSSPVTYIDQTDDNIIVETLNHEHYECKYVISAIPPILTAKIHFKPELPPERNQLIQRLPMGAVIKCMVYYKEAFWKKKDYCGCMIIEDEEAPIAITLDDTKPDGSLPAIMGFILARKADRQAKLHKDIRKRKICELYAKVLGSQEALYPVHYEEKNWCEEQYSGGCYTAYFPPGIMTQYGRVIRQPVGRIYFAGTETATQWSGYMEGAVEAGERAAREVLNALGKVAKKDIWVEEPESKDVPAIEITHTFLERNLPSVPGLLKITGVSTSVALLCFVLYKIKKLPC
Put plainly: In vitro inhibitory against monoamine oxidase A (MAO-A) in rat brain homogenate. It is filed as tissue-based.

On to `Cc1c(C)c2ccc(OCc3ccccn3)cc2oc1=O`, for which the 50% inhibitory concentration (IC50) in assay [1] was 9 nM; in assay [2], 1.8 µM. Take `Cc1c(C)c2ccc(OCc3csc(C(C)C)n3)cc2oc1=O`: the IC50 in assay [1] amounted to 1.4 nM; in assay [2], 10 µM. In assay [2], `Cc1c(C)c2ccc(OCc3nc(C(C)C)no3)cc2oc1=O` displayed an IC50 above 10 µM.

As to `Cc1c(C)c2ccc(OC(C)c3ccc(C(C)C)cc3)cc2oc1=O` (stereo not given), the IC50 in assay [1] was 10000 nM; in assay [2], above 10 µM.

As to `Cc1c(C)c2ccc(OS(C)(=O)=O)cc2oc1=O`, in assay [1], the IC50 is above 10000 nM. Consider `CCCCCS(=O)(=O)Oc1ccc2c(C)c(C)c(=O)oc2c1`, for which the figures for the IC50 in assay [1] and in assay [2] were 2200 nM and 0.016 µM, respectively. In turn, `CCCCCCCCS(=O)(=O)Oc1ccc2c(C)c(C)c(=O)oc2c1` showed an IC50 in assay [1] above 10000 nM. Turning to `Cc1nnc(COc2ccc3c(C)c(C)c(=O)oc3c2)o1`, the IC50 in assay [1] is 15 nM; in assay [2] it was 5.6 µM.

Consider `Cc1c(C)c2ccc(OCc3ccc(C(C)C)cc3)c(C)c2oc1=O`, for which the results for the 50% inhibitory concentration (IC50) in assay [1] and in assay [2] were above 10000 nM and above 10 µM, respectively.

As to `Cc1c(C)c2ccc(O)cc2oc1=O`, the values for the IC50 in assay [1] and in assay [2] were above 10000 nM and around 10 µM, respectively. For `COc1ccc2c(C)c(C)c(=O)oc2c1` the same measures were 0.5 nM and 0.071 µM.

With `Cc1c(C)c2ccc(OCc3cc(C4CC4)on3)cc2oc1=O`, the IC50 turned out to be 0.8 nM in assay [1] and 7 µM in assay [2]. As for `Cc1c(C)c2ccc(OCc3nnc(C(C)C)s3)cc2oc1=O` [ATIBEPRONE], the IC50 in assay [1] is 0.9 nM; in assay [2], above 10 µM.

In assay [2], `COc1cc(Br)c2oc(C3CCNCC3)cc2c1` [BROFAROMINE] returned an IC50 of 0.005 µM.

`CCS(=O)(=O)Oc1ccc2c(C)c(C)c(=O)oc2c1` [ESUPRONE]: in assay [1], the IC50 was 5000 nM.

In general, IC50 refers to the concentration that gives 50% inhibition. Low values mean greater potency in that assay, high ones weaker potency in that assay.

The values are drawn from ChEMBL document CHEMBL1127882, “Synthesis of coumarins as subtype-selective inhibitors of monoamine oxidase” (Bioorg Med Chem Lett, 1994).
